Earlier results, collected in US8273362B2, “Ophthalmic emulsions containing prostaglandins” (Novagali Pharma S.A., priority 2004, dated 2012).

Key:
[1] = at 0.3% w/v
[2] = ophthalmic preparations

Molecule	Solubility in water	other results
CCCCC[C@H](O)/C=C/[C@H]1[C@H](O)CC(=O)[C@H]1C/C=C\CCCC(=O)O [8-isoprostaglandinE2]	almost insoluble in water	
CCNC(=O)CCC/C=C\C[C@@H]1[C@@H](/C=C/[C@@H](O)CCc2ccccc2)[C@H](O)C[C@@H]1O [Bimatoprost, bimatoprost]	almost insoluble in water	
CC(C)OC(=O)CCC/C=C\C[C@@H]1[C@@H](CC[C@@H](O)CCc2ccccc2)[C@H](O)C[C@@H]1O [Latanoprost, latanoprost]	almost insoluble in water	
CC(C)OC(=O)CCC/C=C\C[C@@H]1[C@@H](/C=C/[C@@H](O)COc2cccc(C(F)(F)F)c2)[C@H](O)C[C@@H]1O [Travoprost, travoprost]	almost insoluble in water	
CCCCCCCC/C=C\CCCCCCCCN [oleylamine]		Safety for ocular administration [1]: safe
CCCCCCCCCCCCCCCCCCN [stearylamine]		Safety for ocular administration [1]: safe
CC(C)OC(=O)CCC/C=C\C[C@@H]1[C@@H](/C=C/C(F)(F)COc2ccccc2)[C@H](O)C[C@@H]1O [tafluprost]	almost insoluble in water	
CCCCCCCC(=O)CC[C@@H]1[C@@H](C/C=C\CCCC(=O)OC(C)C)[C@@H](O)C[C@H]1O [unoprostone isopropyl]	almost insoluble in water	
benzalkonium chloride [BAK]		Toxicity of long term use [2]: important toxicity
